Assay results: US10517863B2, “Trilobine and its natural analogs for use as a drug” (PIERRE FABRE MEDICAMENT, priority 2015, dated 2019)

Columns and labels:
[1] = system: Karpass299; test: Anti-proliferative activity (ATPLite); type: cell-based; conditions: Homo sapiens; Karpass299, Lymphoma; +/− standard error; read-out: Antiproliferative activity EC50
Procedure: (§1) To measure the anti-proliferative properties of tested molecules, 2×10^4 cells are seeded at day 0 in a 96 wells plate. The compounds to be tested, stored at −20° C. as 10^−2 M stock solution in 100% DMSO, are freshly diluted on day 1 in the cell medium, before adding a dose range of 3.2 nM to 10 μM to the cells. The cell viability is assessed using the ATPLite kit from Perkin (ATPlite 1 Step Luminescence Assay System, ref 3016739), following the provider instructions. The raw data are analyzed with GraphPad Prism software (v4.03) to generate IC50 values corresponding to the compound concentrations giving 50% reduction in cell viability. The values presented are the mean results of at least two independent experiments. The standard errors are indicated.

[2] = system: KG-1; test: Anti-proliferative activity (ATPLite); type: cell-based; conditions: Homo sapiens; KG-1, Leukaemia; +/− standard error; read-out: Antiproliferative activity EC50
Procedure: as §1

[3] = system: HCT-116; test: Anti-proliferative activity (ATPLite); type: cell-based; conditions: Homo sapiens; HCT-116, Colorectal; +/− standard error; read-out: Antiproliferative activity EC50
Procedure: as §1

[4] = system: panel of cancer cell lines; test: Anti-proliferative activity (ATPLite), whole panel; type: cell-based; conditions: Homo sapiens; range over the panel
Procedure: as §1

[5] = system: P16 promoter in colon cancer cells HCT116; test: P16 (CDKN2A) promoter demethylation, COBRA; type: cell-based, human; conditions: at 0.1 μM
Procedure: Cancer cell lines (colon HCT116 or leukaemia KG1) were treated with the compounds as indicated in the Data Tables and then analysed as following.
DNA was isolated from cultured cells using the DNeasy Blood and Tissue Kit according to the manufacturer's specifications (Qiagen). DNA bisulphite conversion was performed on 2 μg of DNA using the EZ DNA Methylation-Gold Kit according to the manufacturer's specifications (Zymo Research) and bisulfited DNA was eluted with 10 μL of water. Two different techniques were used to analyse the DNA methylation profile after bisulfite conversion of genomic DNA: (A) cloning and sequencing or (B) COBRA. The primers for each promoter are specified in the Table 3.
This technique is a variation of bisulfite sequencing, and combines bisulfite conversion based polymerase chain reaction with restriction digestion. DNA methylation levels are easily and quickly measured without the need for laborious and costing more time sub-cloning and sequencing, as with bisulfite sequencing.
DNA amplification was set up with 100 ng eluted bisulfited DNA in 50 μl PCR reaction containing 1×PCR buffer, 2.5 mM MgCl2, 0.3 mM dNTPs, 400 nM each primer and 1.25 units EpiTaq HS (Takara) on C1000 Touch™ thermal cycler by 98° C. for 10 sec, 55° C. for 30 sec, 72° C. for 30 sec×40 cycles. 20 μL of PCR amplicons were digested in 30 μL by 2 units of BsiEI at 60° C. for 90 min. DNA fragments were migrated by 2% agarose gel electrophoresis and each band was quantified by Image Lab Software v2.0 (BioRad Laboratories).

[6] = system: P16 expression in colon cancer cells HCT116; test: P16 reexpression by RT-qPCR; type: cell-based, human; conditions: at 100 nM, at 3 days
[7] = biological target: T1, His-DNMT1 (182 kDa, human) (Homo sapiens, UniProt P26358); test: hDNMT1 assay ([methyl-3H] SAM Flashplate); type: biochemical; conditions: read-out: hDNMT1 percentage of inhibition
T1 construct: His; made in house
Procedure: His-DNMT1 (182 kDa, human) was cloned, expressed and purified as described in the literature (Halby et al. ChemBioChem 2012, 13, 157-165). The reaction was performed in a […] total reaction volume in low volume NBS™ 384-well microplates (Corning), containing the tested compound (up to 1% DMSO), 1 μM of a SAM/[methyl-^3H] SAM (3 TBq/mmol, PerkinElmer) mix in a ratio of 3-to-1 (isotopic dilution 1*:3), 0.3 μM of biotinylated hemimethylated DNA duplex (5′-GATmCGCmCGATGmCGmCGAATmCGmCGATmCGATGmCGAT-3′ and BIOT-5′-[…]-3′), and 90 nM of DNMT1 in methylation buffer (20 mM HEPES pH 7.2, 1 mM EDTA, 50 mM KCl, 25 μg/mL BSA). The reaction was incubated at 37° C. for 2 hours. 8 μL, are then transferred into a streptavidin 96-well scintillant coated Flashplate™ (PerkinElmer) containing 190 μL of 20 μM SAH in 50 mM Tris-HCl pH 7.4. The Flashplate™ was agitated at room temperature for 1 hour and read in 200 μL of 50 mM Tris-HCl pH 7.4 on TopCount NXT (PerkinElmer). The percentage of inhibition is reported. The formula used to calculate the percentage of inhibition is [(X−Y)/X]×100, where X is the signal determined in the absence of the inhibitor and Y is the signal obtained in the presence of the inhibitor.

T1 sequence (P26358 whole entry): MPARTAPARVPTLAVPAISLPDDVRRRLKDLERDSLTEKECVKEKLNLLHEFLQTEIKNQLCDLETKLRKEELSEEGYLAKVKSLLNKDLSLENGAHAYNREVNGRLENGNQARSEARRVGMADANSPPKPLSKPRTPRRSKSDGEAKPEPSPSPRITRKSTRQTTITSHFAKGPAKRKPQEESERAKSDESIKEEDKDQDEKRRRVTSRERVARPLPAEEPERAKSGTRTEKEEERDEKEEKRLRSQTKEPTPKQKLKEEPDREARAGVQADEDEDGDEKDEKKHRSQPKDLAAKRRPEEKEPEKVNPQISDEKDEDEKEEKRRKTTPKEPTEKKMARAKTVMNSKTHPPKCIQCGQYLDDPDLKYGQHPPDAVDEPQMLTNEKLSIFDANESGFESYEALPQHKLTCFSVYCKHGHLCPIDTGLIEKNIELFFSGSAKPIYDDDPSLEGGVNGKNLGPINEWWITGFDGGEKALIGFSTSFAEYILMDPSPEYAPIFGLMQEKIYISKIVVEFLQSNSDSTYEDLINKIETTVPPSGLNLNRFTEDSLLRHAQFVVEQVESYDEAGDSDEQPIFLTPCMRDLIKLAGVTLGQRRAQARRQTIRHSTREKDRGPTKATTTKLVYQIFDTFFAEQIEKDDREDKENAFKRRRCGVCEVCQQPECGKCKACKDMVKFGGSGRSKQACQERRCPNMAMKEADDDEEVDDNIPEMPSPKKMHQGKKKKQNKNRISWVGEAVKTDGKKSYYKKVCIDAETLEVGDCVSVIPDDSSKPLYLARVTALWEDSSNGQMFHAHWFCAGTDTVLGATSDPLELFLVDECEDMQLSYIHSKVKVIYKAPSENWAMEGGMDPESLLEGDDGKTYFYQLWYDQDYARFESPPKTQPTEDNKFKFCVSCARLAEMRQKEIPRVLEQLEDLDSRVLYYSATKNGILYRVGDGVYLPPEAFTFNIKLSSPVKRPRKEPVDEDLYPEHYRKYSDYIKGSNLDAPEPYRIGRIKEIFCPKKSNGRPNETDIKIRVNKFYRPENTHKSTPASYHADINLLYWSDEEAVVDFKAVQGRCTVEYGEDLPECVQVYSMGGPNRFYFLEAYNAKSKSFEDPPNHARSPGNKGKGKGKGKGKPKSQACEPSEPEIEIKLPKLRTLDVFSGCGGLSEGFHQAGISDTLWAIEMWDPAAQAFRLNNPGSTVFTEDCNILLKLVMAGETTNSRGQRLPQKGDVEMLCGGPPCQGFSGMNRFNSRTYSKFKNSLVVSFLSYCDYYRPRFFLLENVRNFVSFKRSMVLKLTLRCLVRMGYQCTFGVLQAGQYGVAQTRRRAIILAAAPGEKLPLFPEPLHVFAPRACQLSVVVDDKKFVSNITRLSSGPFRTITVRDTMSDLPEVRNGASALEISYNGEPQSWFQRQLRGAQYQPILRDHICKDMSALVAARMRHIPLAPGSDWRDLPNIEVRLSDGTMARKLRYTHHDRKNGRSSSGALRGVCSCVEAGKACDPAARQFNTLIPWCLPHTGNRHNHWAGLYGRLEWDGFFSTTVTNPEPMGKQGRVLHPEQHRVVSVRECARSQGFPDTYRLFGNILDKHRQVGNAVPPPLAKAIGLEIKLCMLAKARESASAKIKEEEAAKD

COc1ccc2cc1Oc1ccc(cc1)C[C@@H]1NCCc3cc(OC)c4c(c31)Oc1cc3c(cc1O4)CCN(C)[C@H]3C2 [Compound 1, Trilobine]
EC50 [1]: 1300 nM
EC50 [2]: 2200 nM
EC50 [3]: 1200 nM
IC50 [4]: 900 to 6800 nM
Demethylation (COBRA) P16/HCT116 ([5]; after 3 days): −37% after 3 days
Demethylation (COBRA) P16/HCT116 ([5]; after 7 days): −52% after 7 days
Demethylation (COBRA) P16/HCT116 ([5]; after 21 days): −53% after 21 days
Rexpression (RT qPCR) P16/HCT116 expression fold to non-treated cells [6]: 5.0 ± 2.14 fold
inhibition at 32 µM [7]: 50%
